Laboratory results reported in patent US4241182A, “Fortimicin factors KG1, KG2 and KG3 and processes for production thereof” (Kyowa Hakko Kogyo Co., Ltd., priority 1978, dated 1980).
≈ marks a conversion by molar mass, not a printed value. Where two headings read alike, the source gives them in different places.

How the values were obtained:
[1] = system: Bacillus subtilis No. 10707; assay: Activity of isolated substance (units per mg), paper disc method; assay type: cell-based
Protocol: After the completion of fermentation, the culture liquor is adjusted to pH 2.5 with concentrated sulfuric acid and is stirred for 30 minutes. Thereafter, about 7 kg of a filter aid, Radiolite No. 600 (product of Showa Kagaku Kogyo Co., Ltd., Japan) is added to the culture liquor and the microbial cells are removed by filtration. The filtrate is adjusted to pH 7.5 by the addition of 6 N sodium hydroxide, and then flowed through a column packed with about 20 l of a cation exchange resin, Amberlite IRC-50 (ammonium form). The active principles are adsorbed on the resin, and the effluent is discarded. After the resin is washed with water, elution of the active principles is carried out with 1 N aqueous ammonia. The eluate is subjected to determination of activity by a paper disc method using an agar plate of Bacillus subtilis No. 10707. Fractions showing an activity are combined and concentrated under reduced pressure to about 1 l. The concentrate is adjusted to pH 7 with concentrated hydrochloric acid and then flowed through a column packed with 3 l of Amberlite CG-50 (ammonium form). After the resin is washed with water, elution is carried out with 0.1 N NH4 OH containing 0.1 M NH4 Cl. The eluate is taken in 500 ml fractions. Each fraction is subjected to determination of antibacterial activity against Bacillus subtilis No. 10707 and identification of active component by silica gel thin layer chromatography [Developer: the lower layer of a mixed solvent of chloroform, methanol and concentrated aqueous ammonia (2:1:1 by volume), Coloring agent: ninhydrin]. After the volume of the eluate reaches about 3 l, Fortimicin factors KG1, KG2 and KG3 begin to be eluted. The fractions containing Fortimicin factors KG1, KG2 and KG3 are collected, concentrated under reduced pressure to remove ammonia, neutralized with concentrated hydrochloric acid and flowed through a column packed with 500 ml of Amberlite IRC-50 (ammonium form). After the resin is washed with water, elution is carried out with 0.5 N aqueous ammonia. The active fractions are collected, concentrated under reduced pressure and freeze-dried to obtain 2 g of a white powder. The powder contains in it 250 mg of Fortimicin KG1, 640 mg of Fortimicin KG2 and 330 mg of Fortimicin KG3.
2 g of the crude powder is placed on a silica gel column (Silica gel: produced by Wako Junyaku Co., Ltd., Japan, Diameter of column: about 3 cm). Development is carried out with the lower layer of a mixed solvent of chloroform, methanol and concentrated aqueous ammonia (3:1:1 by volume). The eluate is taken in 20 ml fractions. Each fraction is subjected to the silica gel thin layer chromatography. First, Fortimicin B is eluted and then Fortimicin factors KG2, KG1 and KG3 are eluted in this order. The fractions respectively containing Fortimicin factors KG1, KG2 and KG3 are collected, concentrated under reduced pressure and freeze-dried to obtain 200 mg of Fortimicin KG1, [Activity: 970 u/mg (u: unit)], 500 mg of Fortimicin KG2 (Activity: 970 u/mg) and 250 mg of Fortimicin KG3 (Activity: 950 u/mg) (Activity of each of the purified substances is considered to be 1000 u/mg).

[2] = system: Gram-positive and Gram-negative bacteria; assay: Antibacterial spectrum (summary of Table 3); assay type: cell-based
Text: (§1) Table 3 illustrates the antibacterial spectra of Fortimicin factors KG1, KG2 and KG3 against various microorganisms.
(§2) (Minimum Inhibitory Concentration, μg/ml measured by
(§3) agar dilution method at pH 8.0)

[3] = Solubility of the free base; assay type: physicochemical; conditions: for solubility in ethanol and acetone / solubility in methanol / solubility in organic solvents such as chloroform, benzene, ethyl acetate, butyl acetate, ethyl ether, butanol, petroleum ether, n-hexane / solubility in water: free base
[4] = system: Escherichia coli ATCC 26; assay: Antibacterial spectrum, agar dilution method; assay type: cell-based
Text: as §1, §2, §3

[5] = system: Pseudomonas aeruginosa BMH#1; assay: Antibacterial spectrum, agar dilution method; assay type: cell-based
Text: as §1, §2, §3

[6] = system: Escherichia coli KY8302; assay: Antibacterial spectrum, agar dilution method; assay type: cell-based; conditions: for MIC: Escherichia coli, KY8302, pH 8, Escherichia coli KY8302 (resistant to chloramphenicol, streptomycin, kanamycin, paromomycin, tetracycline and spectinomycin), read-out: Minimum Inhibitory Concentration
Text: as §1, §2, §3

[7] = system: Escherichia coli KY8327; assay: Antibacterial spectrum, agar dilution method; assay type: cell-based; conditions: for MIC: Escherichia coli, KY8327, pH 8, Escherichia coli KY8327 (resistant to kanamycin, gentamicin and tobramycin), read-out: Minimum Inhibitory Concentration
Text: as §1, §2, §3

[8] = system: Staphylococcus aureus ATCC 6538P; assay: Antibacterial spectrum, agar dilution method; assay type: cell-based; conditions: for MIC: Staphylococcus aureus, ATCC6538P, pH 8, Staphylococcus aureus ATCC 6538P, read-out: Minimum Inhibitory Concentration
Text: as §1, §2, §3

[9] = system: Proteus vulgaris ATCC 6897; assay: Antibacterial spectrum, agar dilution method; assay type: cell-based
Text: as §1, §2, §3

[10] = system: Escherichia coli KY8348; assay: Antibacterial spectrum, agar dilution method; assay type: cell-based; conditions: for Minimum Inhibitory Concentration: Escherichia coli KY8348 (resistant to streptomycin and gentamicin), pH 8.0
Text: as §1, §2, §3

[11] = system: certain strains of Escherichia coli which are resistant to various antibiotics; assay: Antibacterial activity against resistant strains (summary of Table 3); assay type: cell-based
Text: as §1, §2, §3

[12] = Acute toxicity, intravenous administration in mice; conditions: mouse, in vivo
[13] = system: Klebsiella pneumoniae ATCC 10031; assay: Antibacterial spectrum, agar dilution method; assay type: cell-based; conditions: ATCC10031, pH 8.0, read-out: Minimum Inhibitory Concentration
Text: as §1, §2, §3

[14] = system: Bacillus subtilis No. 10707; assay: Antibacterial spectrum, agar dilution method; assay type: cell-based; conditions: pH 8.0, read-out: Minimum Inhibitory Concentration
Text: as §1, §2, §3

[15] = system: Shigella sonnei ATCC 9290; assay: Antibacterial spectrum, agar dilution method; assay type: cell-based; conditions: ATCC9290, pH 8.0, read-out: Minimum Inhibitory Concentration
Text: as §1, §2, §3

[16] = system: Salmonella typhosa ATCC 9992; assay: Antibacterial spectrum, agar dilution method; assay type: cell-based; conditions: Salmonella enterica, pH 8, read-out: Minimum Inhibitory Concentration
Text: as §1, §2, §3

[17] = after silica gel chromatography, pure substance considered 1000 u/mg
[18] = Pseudomonas aeruginosa BMH#1, pH 8.0, read-out: Minimum Inhibitory Concentration
[19] = ATCC6897, Proteus vulgaris ATCC 6897, pH 8.0, read-out: Minimum Inhibitory Concentration

For `CNC1C(O)C(OC2OC(C(C)N)=CCC2N)C(N)C(O)C1OC` (stereo not drawn) [Fortimicin KG1], the Activity [1, 17] was 970 u/mg, the “antibacterial activity / spectrum (in words)” value [2] was “broad antibacterial spectrum” and the “solubility in ethanol and acetone” value [3] was “slightly soluble”. The solubility in methanol [3] was “soluble”, the “solubility in organic solvents such as chloroform, benzene, ethyl acetate, butyl acetate, ethyl ether, butanol, petroleum ether, n-hexane” value (shortened to “solubility in organic solvents such”) [3] was “insoluble” and the solubility in water [3] was “readily soluble”. For the same compound, the “solubility in the ordinary organic solvents” value [3] was “poorly soluble”, the MIC ([4]; Escherichia coli, ATCC26, pH 8, read-out: Minimum Inhibitory Concentration, Escherichia coli ATCC 26) was 26.1 µg/mL (≈ 75.3 µM) and the MIC [5, 18] was over 208 µg/mL. The MIC [6] was 26.1 µg/mL (≈ 75.3 µM), the MIC [7] was 26.1 µg/mL (≈ 75.3 µM) and the MIC [8] was 13.1 µg/mL (≈ 37.8 µM). For the same compound, the MIC ([9]; Proteus vulgaris, ATCC6897, pH 8, read-out: Minimum Inhibitory Concentration, Proteus vulgaris ATCC 6897) was 26.1 µg/mL (≈ 75.3 µM) and the “Minimum Inhibitory Concentration” value [10] was 26.1 µg/mL.

With `CNC1C(O)C(OC2OC(C(C)N)=CCC2N)C(N)C(O)C1OC` (stereo not drawn) [Fortimicin KG2] the Activity [1, 17] was 970 u/mg, the “antibacterial activity / spectrum (in words)” value [2] was “broad antibacterial spectrum” and the “solubility in ethanol and acetone” value [3] was “slightly soluble”. For the same compound, the solubility in methanol [3] was “soluble”, the “solubility in organic solvents such” value [3] was “insoluble” and the solubility in water [3] was “readily soluble”. The “solubility in the ordinary organic solvents” value [3] was “poorly soluble”, the “Minimum Inhibitory Concentration” value ([4]; Escherichia coli ATCC 26, pH 8.0) was 41.7 µg/mL and the MIC ([5]; Pseudomonas aeruginosa, pH 8, read-out: Minimum Inhibitory Concentration, Pseudomonas aeruginosa BMH#1) was over 167 µg/mL. The “Minimum Inhibitory Concentration” value ([6]; Escherichia coli KY8302 (resistant to chloramphenicol, streptomycin, kanamycin, paromomycin, tetracycline and spectinomycin), pH 8.0) was 41.7 µg/mL, the “Minimum Inhibitory Concentration” value ([7]; Escherichia coli KY8327 (resistant to kanamycin, gentamicin and tobramycin), pH 8.0) was 20.9 µg/mL and the “Minimum Inhibitory Concentration” value ([8]; Staphylococcus aureus ATCC 6538P, pH 8.0) was 10.5 µg/mL. The MIC [9, 19] was 83.3 µg/mL (≈ 240 µM) and the “Minimum Inhibitory Concentration” value [10] was 166.6 µg/mL.

For `COC1C(O)C(N)C(OC2OC(C(C)N)=CCC2N)C(O)C1N(C)C(=O)CN` (stereo not drawn) [Fortimicin KG3], the Activity [1, 17] was 950 u/mg, the “effectiveness against resistant Escherichia coli (in words)” value [11] was “effective against certain strains of Escherichia coli which are resistant to various antibiotics” and the “antibacterial activity / spectrum (in words)” value [2] was “strong antibacterial activity against a broad range of Gram-positive and Gram-negative bacteria”. The LD50 [12] was 225 mg/kg, the “solubility in ethanol and acetone” value [3] was “slightly soluble” and the solubility in methanol [3] was “soluble”. For the same compound, the “solubility in organic solvents such” value [3] was “insoluble”, the solubility in water [3] was “readily soluble” and the “solubility in the ordinary organic solvents” value [3] was “poorly soluble”. It also gave an MIC ([4]; ATCC26, Escherichia coli ATCC 26, pH 8.0, read-out: Minimum Inhibitory Concentration) of 0.33 µg/mL (≈ 0.818 µM), an MIC [13] of 0.18 µg/mL (≈ 0.446 µM) and an MIC [5, 18] of 5.2 µg/mL (≈ 12.9 µM). It also gave an MIC [6] of 0.52 µg/mL (≈ 1.29 µM), an MIC [7] of 0.33 µg/mL (≈ 0.818 µM) and an MIC [14] of under 0.045 µg/mL. The MIC [8] was 0.083 µg/mL (≈ 0.206 µM), the MIC [15] was 0.7 µg/mL (≈ 1.73 µM) and the MIC [16] was 0.18 µg/mL (≈ 0.446 µM). The MIC [9, 19] was 0.66 µg/mL (≈ 1.64 µM) and the MIC ([10]; Escherichia coli, KY8348, pH 8, Escherichia coli KY8348 (resistant to streptomycin and gentamicin), read-out: Minimum Inhibitory Concentration) was 10.4 µg/mL (≈ 25.8 µM).

`CNC1C(O)C(OC2OC(C(C)N)=CCC2N)C(N)C(O)C1OC` (stereo not drawn) [sulfate of Fortimicin KG1] showed an Activity ([1]; sulfate, u: unit) of 620 u/mg.

`CNC1C(O)C(OC2OC(C(C)N)=CCC2N)C(N)C(O)C1OC` (stereo not drawn) [sulfate of Fortimicin KG2] gave an Activity ([1]; sulfate, u: unit) of 620 u/mg.

`COC1C(O)C(N)C(OC2OC(C(C)N)=CCC2N)C(O)C1N(C)C(=O)CN` (stereo not drawn) [sulfate of Fortimicin KG3] showed an Activity ([1]; sulfate, u: unit) of 650 u/mg.
